Square brackets hold non-standard residues; d marks the D form. Ends that are not written are not given here. deamidated = deamidated asparagine; Met(O) = CS(=O)CC[C@H](N)C(=O)O
Tested on: mouse ADAMTS7
Experiment: TMT10 TAILS N-terminomics, SMC1 experiment (Ad-mADAMTS7 WT vs EQ vs Luc, technical replicates, trypsin digest)
Assay type: cell-based
Details: for logFC.mWT.over.mEQ: TAILS neo-N-terminal peptide abundance, log fold change, Ad-mADAMTS7 WT over EQ; for SMC1 logFC.mWT.over.mEQ: TAILS HC Overlap, log fold change mouse ADAMTS7 WT over catalytically inactive EQ
In short: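 Full-length mouse ADAMTS7 (WT or E373Q mutant, C-terminal 3xFLAG) or luciferase was transduced via adenovirus, 50 MOI, into HCA-SMC (SMC1, SMC2) or HUVEC. SMC1: pooled media, technical triplicates 400 ug; SMC2: process triplicates 300 ug; HUVEC: process triplicates 200 ug, bFGF2 10 ng/ml.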

POSTN_790 (FIEGGDGHLFEDEEIKR; listed as Homo sapiens)
logFC.mWT.over.mEQ: 1.18

THBS2_290 (LSENLKR; listed as Homo sapiens)
SMC1 logFC.mWT.over.mEQ: 4.05

MAP4_815 (AVASTGPSSR; listed as Homo sapiens)
logFC.mWT.over.mEQ: 1.19

PAPPA_41 (AAGPATCATR; listed as Homo sapiens)
logFC.mWT.over.mEQ: 3.48

ECM1_43 (YAAPPSPPLSR; listed as Homo sapiens)
logFC.mWT.over.mEQ: 0.68

COL1A2_731 (AAGQPGAKGER; listed as Homo sapiens)
logFC.mWT.over.mEQ: 1.03

MAP1B_1065 (LTTPTKQLGAQSPGR; listed as Homo sapiens)
logFC.mWT.over.mEQ: 1.30

CLEC11A_50 (HLQEALGLPAGR; listed as Homo sapiens)
logFC.mWT.over.mEQ: 1.42

OS9_55 (SQSSDVVIVSSKYKQR; listed as Homo sapiens)
logFC.mWT.over.mEQ: 2.29

COL1A2_960 (AGAPGPHGPVGPAGKHGNR; listed as Homo sapiens)
logFC.mWT.over.mEQ: 2.91

VIM_314 (QESTEYR; listed as Homo sapiens)
SMC1 logFC.mWT.over.mEQ: 2.60

CDC37_43 (FQKEKEELDR; listed as Homo sapiens)
logFC.mWT.over.mEQ: 1.88

COL5A1_544 (SQAQAILQQAR; listed as Homo sapiens)
logFC.mWT.over.mEQ: 1.08

MAN2A1_51 (LQEKIDHLER; listed as Homo sapiens)
logFC.mWT.over.mEQ: 1.86

COL8A1_90 (MKEIQPAPR; listed as Homo sapiens)
logFC.mWT.over.mEQ: 1.35

NUCB1_389 (LQQAVLHMEQR; listed as Homo sapiens)
logFC.mWT.over.mEQ: 2.09

COL1A2_389 (SAGPPGPPGLR; listed as Homo sapiens)
logFC.mWT.over.mEQ: 0.72

COL4A2_71 (YNGPPGLQGFPGLQGR; listed as Homo sapiens)
logFC.mWT.over.mEQ: 2.14

POSTN_754 (IITGPEIKYTR; listed as Homo sapiens)
logFC.mWT.over.mEQ: 1.68

MGAT4B_28 (LSGQKGDVVDVYQR; listed as Homo sapiens)
logFC.mWT.over.mEQ: 1.66

CDH11_467 (HQEAKVPVAIR; listed as Homo sapiens)
logFC.mWT.over.mEQ: 2.06

VIM_333 (LKGTNESLER; listed as Homo sapiens)
SMC1 logFC.mWT.over.mEQ: 4.39

COL1A2_1127 (SLRPKDYEVDATLKSLNNQIETLLTPEGSR; listed as Homo sapiens)
logFC.mWT.over.mEQ: 2.68

COL1A2_681 (VGAPGPAGATGDR; listed as Homo sapiens)
logFC.mWT.over.mEQ: 1.60

COL1A2_80 (QYDGKGVGLGPGPMGLMGPR; listed as Homo sapiens)
logFC.mWT.over.mEQ: 2.36

COL1A2_305 (LTGAKGAAGLPGVAGAPGLPGPR; listed as Homo sapiens)
logFC.mWT.over.mEQ: 1.63

PDLIM4_104 (IDPEIQDGSPTTSR; listed as Homo sapiens)
logFC.mWT.over.mEQ: 1.13

COL1A2_630 (VGTAGPSGPSGLPGER; listed as Homo sapiens)
logFC.mWT.over.mEQ: 1.45

NID2_291 (HSSVPLGR; listed as Homo sapiens)
logFC.mWT.over.mEQ: 4.04

COL1A2_425 (ASGPAGVR; listed as Homo sapiens)
logFC.mWT.over.mEQ: 1.34

POLR3G_88 (LFCSHWSHIPGFK; listed as Homo sapiens)
logFC.mWT.over.mEQ: 1.51

POSTN_807 (LLQGDTPVR; listed as Homo sapiens)
logFC.mWT.over.mEQ: 1.17

COL1A2_113 (FQGPAGEPGEPGQTGPAGAR; listed as Homo sapiens)
logFC.mWT.over.mEQ: 2.27

PXDN_1341 (SYQEDKPTKKTR; listed as Homo sapiens)
logFC.mWT.over.mEQ: 5.26

MAP4_816 (VASTGPSSR; listed as Homo sapiens)
logFC.mWT.over.mEQ: 1.62

COL1A2_866 (LLGAPGILGLPGSR; listed as Homo sapiens)
logFC.mWT.over.mEQ: 3.72

COL4A2_172 (YALPKEER; listed as Homo sapiens)
logFC.mWT.over.mEQ: 5.21

COL1A2_270 (VGNAGPAGPAGPR; listed as Homo sapiens)
logFC.mWT.over.mEQ: 2.82

COL1A2_1037 (HHGDQGAPGSVGPAGPR; listed as Homo sapiens)
logFC.mWT.over.mEQ: 3.09

COL1A2_91 (GPMGLMGPR; listed as Homo sapiens)
logFC.mWT.over.mEQ: 1.16

PXDN_1393 (QKTITDLR; listed as Homo sapiens)
logFC.mWT.over.mEQ: 4.77

PSAP_171 (F[Met(O)]ANIPLLLYPQDGPR; listed as Homo sapiens)
logFC.mWT.over.mEQ: 1.03

NID2_951 (YAYPGAR; listed as Homo sapiens)
logFC.mWT.over.mEQ: 3.92

NID2_467 (LEDNIGSNTEVFTYNAANKETCEHNHR; listed as Homo sapiens)
logFC.mWT.over.mEQ: 2.66

SERBP1_56 (QAAAQTNSNAAGKQLR; listed as Homo sapiens)
SMC1 logFC.mWT.over.mEQ: 4.06

NID2_374 (VGGPDLKGQVEPWDER; listed as Homo sapiens)
logFC.mWT.over.mEQ: 4.94

OS9_54 ([code q]SQSSDVVIVSSKYKQR; also: modified N-terminal Gln; listed as Homo sapiens)
logFC.mWT.over.mEQ: 2.81

POSTN_413 (FSDDTLSMDQR; listed as Homo sapiens)
logFC.mWT.over.mEQ: 2.31

MMP1_24 (LETQEQDVDLVQKYLEKYYNLKN(deamidated)DGR; listed as Homo sapiens)
logFC.mWT.over.mEQ: 2.31

SRGN_59 (LLPGESNKIPR; listed as Homo sapiens)
SMC1 logFC.mWT.over.mEQ: 4.33

NUCB1_317 (FLASTQR; listed as Homo sapiens)
logFC.mWT.over.mEQ: 4.87

COL1A2_1028 (LQGLPGIAGHHGDQGAPGSVGPAGPR; listed as Homo sapiens)
logFC.mWT.over.mEQ: 1.79

COL18A1_1505 (LQPPVVQLHDSNPYPR; listed as Homo sapiens)
logFC.mWT.over.mEQ: 1.42

LTBP2_1602 (EAGVHFR; listed as Homo sapiens)
logFC.mWT.over.mEQ: 0.99

NUCB1_228 (LKEVWEELDGLDPNR; listed as Homo sapiens)
logFC.mWT.over.mEQ: 1.63

PPP1R18_295 (LSETLTR; listed as Homo sapiens)
logFC.mWT.over.mEQ: 3.68

Reference: US20240368668A1, “SUBSTRATES AND BIOMARKERS OF ADAMTS7” (The Broad Institute, Inc., priority 2021, published 2024)
